ChEMBL document CHEMBL3425492, “Dual high-resolution α-glucosidase and radical scavenging profiling combined with HPLC-HRMS-SPE-NMR for identification of minor and major constituents directly from the crude extract of Pueraria lobata” (J Nat Prod, 2015)
Activity calls are given as the source filed them. The rule behind the calls is not given here.

What was measured:
[1] = Antioxidant activity of the compound assessed as inhibition of ABTS radicals after 20 mins by spectrophotometric analysis; assay type: physicochemical
Saccharomyces cerevisiae = experiment: Inhibition of Saccharomyces cerevisiae alpha-glucosidase type 1 assessed as 4-nitrophenol cleavage product by high-resolution biochromatogram

SMILES	inhibition (INH) [1]	Activity (Saccharomyces cerevisiae)
COc1ccc(-c2coc3cc(O[C@@H]4O[C@H](COC(=O)CC(=O)O)[C@@H](O)[C@H](O)[C@H]4O)cc(O)c3c2=O)cc1	Not Active	
COc1ccc(-c2coc3cc(O[C@@H]4O[C@H](COC(=O)CC(=O)O)[C@@H](O)[C@H](O)[C@H]4O)ccc3c2=O)cc1	Not Active	
O=C(O)CC(=O)OC[C@H]1O[C@@H](Oc2cc(O)c3c(=O)c(-c4ccc(O)cc4)coc3c2)[C@H](O)[C@@H](O)[C@@H]1O	Not Active	Active
COc1ccc(-c2coc3cc(O)ccc3c2=O)cc1 [FORMONONETIN]	Not Active	
O=c1c(-c2ccc(O)cc2)coc2cc(O)cc(O)c12 [GENISTEIN]	Not Active	
O=c1c(-c2ccc(O)cc2)coc2c([C@@H]3O[C@H](CO)[C@@H](O)[C@H](O)[C@H]3O)c(O)ccc12 [PUERARIN]	Not Active	Active
O=Cc1c(-c2ccc(O)cc2O)oc2cc(O)ccc12	Active	
COc1ccc(C2=CC(=O)O[C@H]2Cc2ccc(O)cc2)c(O[C@@H]2O[C@H](CO)[C@@H](O)[C@H](O)[C@H]2O)c1	Not Active	Active
O=c1c(-c2ccc(O)cc2)coc2cc(O)ccc12 [DAIDZEIN]	Active	Active
COc1cc(-c2coc3cc(O[C@@H]4O[C@H](COC(=O)CC(=O)O)[C@@H](O)[C@H](O)[C@H]4O)ccc3c2=O)ccc1O	Not Active	

The remaining lines, values ahead:

inhibition (INH) [1]	Activity (Saccharomyces cerevisiae)	SMILES
Not Active		COc1ccc(-c2coc3cc(O[C@@H]4O[C@H](CO)[C@@H](O)[C@H](O)[C@H]4O)cc(O)c3c2=O)cc1
Not Active	Active	O=C(O)CC(=O)OC[C@H]1O[C@@H](Oc2ccc3c(=O)c(-c4ccc(O)cc4)coc3c2)[C@H](O)[C@@H](O)[C@@H]1O
Not Active	Active	O=c1c(-c2ccc(O)cc2)coc2cc(O[C@@H]3O[C@H](CO)[C@@H](O)[C@H](O)[C@H]3O)cc(O)c12 [GENISTIN]
Not Active		COc1ccc(-c2coc3cc(O[C@@H]4O[C@H](CO)[C@@H](O)[C@H](O)[C@H]4O)ccc3c2=O)cc1 [ONONIN]
Not Active		COc1cc(-c2coc3cc(O[C@@H]4O[C@H](CO)[C@@H](O)[C@H](O)[C@H]4O)ccc3c2=O)ccc1O
Not Active		O=c1c(-c2ccc(O[C@@H]3O[C@H](CO)[C@@H](O)[C@H](O)[C@H]3O)cc2)coc2cc(O)ccc12
Not Active	Active	O=c1c(-c2ccc(O)cc2)coc2cc(O[C@@H]3O[C@H](CO)[C@@H](O)[C@H](O)[C@H]3O)ccc12 [DAIDZIN]
